Entries after “also recorded” stand apart in the source; their conditions may differ.
Assays:
[1] = test system: EKP-induced seizures in zebrafish larvae; test: Zebrafish EKP-induced seizure model, locomotor activity tracking; assay type: in vivo; conditions: 8.5 μM, 2 h pre-incubation, 300 μM EKP, 7 dpf larvae, 30 min recording; ****p<0.0001
Description: FIG. 2. Activity profile of 8.5 μM idebenone after 300 μM EKP exposure. Locomotor activity was quantified using ZebraLab™ software (Viewpoint, Lyon, France) and expressed in mean “actinteg” units per 5-min+/−SEM during a 30 min recording interval as indicated above. Statistical analysis: one-way ANOVA with Dunnett's multiple comparison test. A statistical difference is indicated by: ****p<0.0001. For each condition n=10 larvae were used and the experiment was performed three times (n total=30 per condition).
The EKP-induced epilepsy zebrafish model is a suitable model to investigate drug resistant epilepsy. Ethyl ketopentenoate (EKP) is a lipid-permeable GAD-inhibitor that results in […] and drug resistant seizures in zebrafish [Zhang et al. (2017) Sci Rep. 7, 7195]. […]
Larvae (7dpf) in 100 μl VHC were arrayed individually in a 96-well plate (tissue culture plate, at bottom, Falcon, USA) and kept in the light at 28° C. […] The plates were placed in an automated video tracking device (ZebraBox™ apparatus; Viewpoint, Lyon, France) and the locomotor behaviour of the larvae was monitored for […] in the dark at 28° C. Locomotor activity was quantified using ZebraLab™ software (Viewpoint, Lyon, France) and expressed in “actinteg” units per 5-min interval. […] The actinteg value is defined as the sum of all image pixel changes detected during the time window.

[2] = test system: EKP-induced epileptiform activity in zebrafish; test: Zebrafish EKP-induced seizure model, LFP recordings; assay type: in vivo
Description: FIG. 3. Representative LFP recordings of zebrafish in the absence (VHC) or presence of EKP, treated with 8.5-4.3 μM idebenone or untreated (VHC), in the presence or absence of a specific PHGDH inhibitor CBR-5884 [Mullarky et al. (2016) Proc Natl Acad Sci USA 113, 1778-1783].
FIG. 4: Normalized PSD per larvae for the different conditions. Number of epileptic events within a 10-min recording (mean±SEM.). Number of recordings analysed were: VHC (n=9), EKP (n=15), 8.5 μM idebenone (Ide) (n=10), 4.3 μM idebenone (n=10), 4.3 μM idebenone+inhibitor (n=9). PHGDH-inhibitor CBR-5884 was used. Statistical differences as compared to the EKP-only treated larvae were assessed by the following statistical analysis: one-way ANOVA with Dunnett's multiple comparison test. A statistical difference is indicated by: **p<0.01, ***p<0.001 and ****p<0.0001.ns=not significant.
Common to all epilepsies, seizures occur due to an abnormal, excessive and synchronous activity of large neuronal populations. As such, seizures can be observed on electrophysiological recordings such as invasive or non-invasive local field potential (LFP) measurements, being a counterpart of electroencephalogram (EEG) performed in humans. Indeed, these techniques serve as a gold standard for epilepsy diagnosis. […]

[3] = mouse, in vivo; cited from earlier work
[4] = biological target: T1, human recombinant PHGDH (Homo sapiens, UniProt O43175); test: PHGDH enzyme activity, colorimetric PHGDH activity kit (absorbance at 450 nm, NADH generated)
T1 sequence (O43175 1-533): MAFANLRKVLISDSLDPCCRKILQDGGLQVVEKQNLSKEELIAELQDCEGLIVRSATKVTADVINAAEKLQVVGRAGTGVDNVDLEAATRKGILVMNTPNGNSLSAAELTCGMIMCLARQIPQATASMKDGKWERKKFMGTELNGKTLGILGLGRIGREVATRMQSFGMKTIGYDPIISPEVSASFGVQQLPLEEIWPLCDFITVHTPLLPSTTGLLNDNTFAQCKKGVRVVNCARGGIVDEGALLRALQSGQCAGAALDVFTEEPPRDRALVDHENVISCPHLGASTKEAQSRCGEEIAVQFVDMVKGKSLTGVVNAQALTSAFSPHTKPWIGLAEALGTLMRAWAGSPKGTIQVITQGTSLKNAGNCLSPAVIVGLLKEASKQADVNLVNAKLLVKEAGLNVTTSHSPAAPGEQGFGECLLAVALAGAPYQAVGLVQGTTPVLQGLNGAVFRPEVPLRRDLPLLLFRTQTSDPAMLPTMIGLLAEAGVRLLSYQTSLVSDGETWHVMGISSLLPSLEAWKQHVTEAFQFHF
Description: As a readout, absorbance at 450 nm, indicative for the amount of NADH generated, was measured over time.

[5] = test system: Arginase 1 expression (microglia/macrophage M2 marker); test: Temporal lobe epilepsy model (SSSE), Arginase-1 expression by real-time quantitative PCR of brain tissue; assay type: in vivo, C57bl/6 mice; conditions: 100 mg/kg twice daily i.p. for one week, vs vehicle control; p=0.017; two-way ANOVA (FIG. 5)
Description: The present example investigates whether Idebenone has the potential to modulate neuroinflammation from an M1 to M2 phenotype. […] (control animals received vehicle injections for one week). Idebenone was suspended in 5% dimethyl sulfoxide and 20% Kolliphor RH40 in 0.01M PBS. Expression of the major marker for M2 polarization, Arginase-1, was assessed via real-time quantitative PCR upon brain tissue processing. Two-way ANOVA analysis was performed to evaluate the effect of two factors including the treatment and the SSSE [self-sustained Electrical Status Epilepticus], and any interaction of the two factors.

[6] = test system: pilocarpine-induced seizures; conditions: rats, preventive treatment 3 days prior to pilocarpine injection; Ahmed (2014); cited from earlier work
[7] = test system: EKP-induced epileptiform activity in zebrafish; conditions: 1 μM; Zhang et al. (2017); cited from earlier work

COC1=C(OC)C(=O)C(CCCCCCCCCCO)=C(C)C1=O [Idebenone, 6-(10-hydroxydecyl)-2,3-dimethoxy-5-methyl-1,4-benzoquinone]
EKP-induced seizures assessed as locomotor movement (actinteg units per 5-min) [1]: significantly reduced EKP-induced seizures | EKP-induced epileptiform activity, LFP recordings ([2]; 8.5-4.3 μM, 10-min recording): significantly reduced EKP-induced epileptiform activity | LD50 [3]: exceeds 10,000 mg/kg | effect on the oxido-reduction reaction toward NADH generation (compound itself) [4]: does not affect the oxido-reduction reaction toward NADH generation | PHGDH enzyme activity ([4]; 25 µM idebenone, over time, DMSO 0.5% (FIG. 1)): induces increased enzyme activity of PHGDH | expression of M2 marker Arginase 1 [5]: increases the expression; also recorded: significant increase | neuroprotection in pilocarpine-induced seizure model [6]: provides neuroprotection

CBR-5884
blocking of the anti-seizure activity of idebenone ([2]; co-administration with idebenone (4.3 μM)): could be blocked by co-administration | blocking of idebenone-induced increased PHGDH activity ([4]; co-administration with idebenone): can be blocked by co-administration

N#Cc1ccccc1-c1cc(-c2ccccn2)cn(-c2ccccc2)c1=O [Perampanel]
anti-seizure activity in the EKP model [7]: anti-seizure activity
